Results from patent EP2402327B1, “Acetamide compounds as glucokinase activators, their process and medicinal applications” (Impetis Biosciences Ltd., priority 2010, dated 2012).

Legend:
[1] = target: T1, purified human recombinant GK (Homo sapiens, UniProt P35557); experiment: Glucokinase activity assay (coupled enzymatic assay with G6PD, NADH absorbance at 340 nm); type: biochemical; settings: for EC50: EC50 of % change in S0.5 (% ΔS0.5) of glucokinase for glucose, sigmoidal fit; for Emax: Emax of % change in S0.5 (% ΔS0.5), vehicle control S0.5 = 0%, 0 mM glucose = 100%
T1 sequence (P35557 1-465): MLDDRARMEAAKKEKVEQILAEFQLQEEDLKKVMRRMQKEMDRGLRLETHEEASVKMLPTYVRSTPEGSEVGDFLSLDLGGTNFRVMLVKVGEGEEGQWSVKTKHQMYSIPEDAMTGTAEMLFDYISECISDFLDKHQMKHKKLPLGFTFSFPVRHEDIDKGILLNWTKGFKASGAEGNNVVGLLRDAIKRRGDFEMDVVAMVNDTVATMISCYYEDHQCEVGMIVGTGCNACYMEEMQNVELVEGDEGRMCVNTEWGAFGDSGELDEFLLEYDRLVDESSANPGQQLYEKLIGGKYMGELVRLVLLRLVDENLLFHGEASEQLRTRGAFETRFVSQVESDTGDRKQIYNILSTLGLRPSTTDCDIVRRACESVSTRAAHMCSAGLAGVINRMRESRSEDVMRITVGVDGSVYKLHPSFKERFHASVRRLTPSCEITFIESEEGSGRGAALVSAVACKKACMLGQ
Description: The glucokinase (GK) assay is a coupled enzymatic assay. GK catalyzes the first step of glycolysis, the conversion of glucose to glucose-6-phosphate (G6P) in the presence of ATP. G6P in turn is converted by glucose-6-phosphate dehydrogenase (G6PD) to 6-phosphogluconate, a process that requires NAD, resulting in NADH formation. Since the GK-catalyzed step is the rate-limiting step of this coupled enzymatic process, the rate of accumulation of 6-phosphogluconate and NADH is directly proportional to the rate of glucose phosphorylation by GK. The rate of the GK-catalyzed reaction can therefore be measured by monitoring the increase in NADH absorbance at 340 nm.
The assay is carried out according to the protocol outlined in Hariharan et al (1997), Diabetes 46: 11-16. Briefly, the test compounds are incubated in a reaction mix containing 25 mM HEPES (pH 7.2), 10 mM MgCl2, 100 mM KCl, 5 mM ATP, 2 mM DTT, 0.5 mM NAD, 1 U/ml Leuconostoc mesenteroides G6PD, 0.3 U/ml of purified human recombinant GK, and different concentrations of glucose. Enzymatic activity is calculated from the initial reaction velocity, measured from the change in NADH absorbance as a function of time.
Compounds described in formula (I), in concentration ranges from 1.0 nM to 500 µM, are tested in the purified human recombinant glucokinase assay described above.
A compound is considered to be a glucokinase activator if it, in its testable range of concentrations, yields a higher rate of glucose phosphorylation than in its absence at a particular glucose concentration, for example at 5 mM glucose.
Compounds of general formula (I) are tested in the in vitro GK enzymatic assay to monitor dose-dependent effect on glucokinase activation (in kinetic mode), as described above, at various glucose concentrations. The S0.5 of glucokinase for glucose at different concentration of each compound of interest is calculated from the following modified version of the Michaelis-Menten equation, V = Vmax [S]^n/(S0.5^n + [S]^n), where [S] is the glucose concentration and n is the Hill coefficient (taken as 1.7 to account for the sigmoidal kinetics of glucokinase with respect to glucose). The S0.5 is plotted against the log of the compound concentration. The change in the S0.5 of glucokinase (ΔS0.5) for glucose is calculated by subtracting the S0.5 at each concentration of the compound from the S0.5 in the vehicle control. The ΔS0.5 is then normalized to a percent scale, where the S0.5 in the vehicle control is set to 0% and 0 mM glucose is set to 100%. The % ΔS0.5 is then plotted against the log of the compound concentration. The EC50 and Emax of % change in S0.5 is obtained from the sigmoidal fit of the data. Detailed protocol has been described in our copending application no. 409/CHE/2007 which is incorporated herein by reference. Characterization data of some representative glucokinase activators of the present disclosure, which are illustrative but not limiting, are given in table I below.
The glucokinase activation data of some representative compounds of the present disclosure, which are illustrative but not to be construed as limiting the scope or spirit of the disclosure, are given in the table I below. Table I: EC50 and Emax (with respect to % ΔS0.5) of GK activators

[2] = test system: primary rat hepatocytes; experiment: Measurement of glycogen synthesis in primary rat hepatocytes; type: cell-based, male Wistar rats; settings: 10 µM compound, 10 mM glucose, 3 hours at 37°C, fold increase over DMSO control
Protocol: Primary hepatocytes are collected from male Wistar rats, and tested for viability by trypan blue exclusion. Primary hepatocytes cultures with viability greater than 95% are selected for the glycogen synthesis assay. The cells are seeded in a 48-well plate at a density of 200,000 cells/well in 250 µl Minimal Essential Medium (MEM) containing 10% foetal calf serum (FCS) and 1.7 µM insulin, and incubated for 4 hours at 37°C to allow attachment. The medium is replaced with fresh MEM containing 10% FCS, 1.7 µM insulin and 10 nM dexamethasone, and the cells are incubated for 16 hours at 37°C. The medium is then replaced with fresh MEM (serum-free) containing 2 µCi/ml of D-[U^14C]-Glucose along with 10 µM of the compound in a final DMSO concentration of 0.1%. The final glucose concentration is brought to 10 mM by the addition of D-Glucose (MEM already contains 5 mM glucose). The cells are incubated for 3 hours at 37°C. The cells are washed twice with 150 mM NaCl, lysed with 0.1 N NaOH, and the lysate precipitated with 8% w/v trichloroacetic acid (TCA) and 1 mg/well unlabeled glycogen as carrier. Cell debris is pelleted by centrifugation, the supernatant is removed, and the glycogen is precipitated with 63% ethanol. After another round of centrifugation, the supernatant is removed, and the pellet containing the precipitated glycogen is dried overnight. De novo synthesized glycogen is estimated in a scintillation counter (MicroBeta Trilux, Perkin Elmer), and expressed as fold increase over DMSO control.
The protocol for the glycogen assay is based on the method described in "Biochem J. 1990 Feb 15; 266(1): 91-102" with a few minor modifications. The protocol for isolation of primary rat hepatocytes is based on the method described in "Methods in Enzymology, Vol. III. pp 34-50. Ed. by S.P. Colowick and N.O. Kaplan. New York, Academic Press, 1957" with a few minor modifications.
Compounds described in formula (I), in concentration ranges from 1.0 nM to 500 µM, are tested in glycogen synthesis assay described above. […]

[3] = cited from earlier work

Compound	EC50 [1] [nM]	Emax [1] [%]	Fold increase in glycogen synthesis at 10 µM [2] [fold]	hypoglycemic potential ([3]; at higher dose, Fyfe, M. C. T. (2007) Diabetologia, 50: 1277-1287)	hypoglycemia ([3]; animal efficacy models, Kamata, K. et al (2004) Structure 12: 429-438)
O=C(O)c1ccc(Oc2cnc(NC(=O)C(O[C@@H]3CCOC3)c3ccc(S(=O)(=O)C4CC4)cc3)s2)cc1 (single isomer, unassigned) [Example D6A]	22	88	11	–	–
O=C(O)c1ccc(Oc2cnc(NC(=O)C(OC3CCOCC3)c3ccc(S(=O)(=O)C4CC4)cc3)s2)cc1 (single isomer, unassigned; (+)) [Example D4A, (+) 4-{2-[2-(4-Cyclopropanesulfonylphenyl)-2-(tetrahydro-pyran-4-yloxy)-acetylamino]-thiazol-5-yloxy}-benzoic acid]	69	92	–	–	–
COc1ccc2nc(NC(=O)C(OC3CCOCC3)c3ccc(S(=O)(=O)C4CC4)cc3)sc2n1 (single isomer, unassigned; (+)) [Example D9A, (+)2-(4-Cyclopropanesulfonyl-phenyl)-N -(5-methoxy-thiazolo[5,4-b]pyridin-2-yl)-2-(tetrahydro-pyran-4-yloxy)-Acetamide]	68	95	–	–	–
CCOc1ccc2nc(NC(=O)C(OC3CCOCC3)c3ccc(S(=O)(=O)C4CC4)cc3)sc2n1 (single isomer, unassigned; (+)) [Example D10A, (+)2-(4-Cyclopropanesulfonyl-phenyl)-N -(5-ethoxy-thiazolo[5,4-b]pyridin-2-yl)-2-(tetrahydro-pyran-4-yloxy)-a Cetamide]	54	92	–	–	–
O=C(O)c1ccc(Oc2cnc(NC(=O)C(Oc3ccc(F)cc3F)c3ccc(S(=O)(=O)C4CC4)cc3)s2)cc1 (single isomer, unassigned; (+)) [Example D11A, (+)4-{2-[2-(4-Cyclopropanesulfonylphenyl)-2-(2,4-difluoro-phenoxy)-acetylamino]-thiazol-5-yloxy}-benzoic acid]	34	95	15.5	–	–
O=C(Nc1nc2cccnc2s1)C(Oc1ccc(F)cc1F)c1ccc(S(=O)(=O)N2CCCCC2)cc1 (single isomer, unassigned; (-)) [Example D1A, (-)2-(2,4-Difluoro-phenoxy)-2-[4-(piperidine-1-sulfonyl)-phenyl]-N-thiazo lo[5,4-b]pyridin-2-yl-acetamide]	84	85	–	–	–
O=C(O)c1ccc(Oc2cnc(NC(=O)C(OC3CCOCC3)c3ccc(S(=O)(=O)C4CC4)cc3)s2)c(F)c1 (stereo not shown) [Example B34, 4-{2-[2-(4-Cyclopropanesulfonyl-phenyl)-2-(tetrahydropyran-4-yloxy)-acetylamino]-thiazol-5-yloxy}-3-fluorobenzoic acid]	45	91	–	–	–
O=C(O)c1ccc2nc(NC(=O)C(OC3CCOCC3)c3ccc(S(=O)(=O)C4CC4)cc3)sc2c1 (stereo not shown) [Example B41, 2-[2-(4-Cyclopropanesulfonyl-phenyl)-2-(tetrahydro-pyran-4-yloxy)-acetylamino]-benzothiazole-6-carboxylic acid]	100	75	–	–	–
NC(=O)c1cccc(Oc2cnc(NC(=O)C(Oc3ccc(F)cc3F)c3ccc(S(=O)(=O)C4CC4)cc3)s2)c1 (stereo not shown) [Example C6, 3-{2-[2-(4-Cyclopropanesulfonyl-phenyl)-2-(2,4-difluorophenoxy)-acetylamino]-thiazol-5-yloxy}-benzamide]	–	–	13.5	–	–
O=C(Nc1ncc(Oc2ccc(-c3nn[nH]n3)cc2)s1)C(OC1CCOCC1)c1ccc(S(=O)(=O)C2CC2)cc1 (stereo not shown) [Example E1, 2-(4-Cyclopropanesulfonyl-phenyl)-2-(tetrahydro-pyran-4-yloxy)-N-{5-[4-(2H-tetrazol-5-yl)-phenoxy]-thiazol-2-yl}-acetamide]	99	88	–	–	–
O=C(Nc1ncc(Oc2ccc(CO)cc2)s1)C(OC1CCOCC1)c1ccc(S(=O)(=O)C2CC2)cc1 (stereo not shown) [Example F1, 2-(4-Cyclopropanesulfonyl-phenyl)-N-[5-(4-hydroxymethyl-phenoxy)-thiazol-2-yl]-2-(tetrahydro-pyran-4-yloxy)-acetamide]	100	91	–	–	–
O=C(Nc1ncc(F)s1)[C@H](CC1CCOCC1)c1ccc(S(=O)(=O)C2CC2)cc1 [PSN-GK1]	–	–	–	hypoglycemic potential is seen	–
Ro-28-1675	–	–	–	–	cause hypoglycemia
